For test [1], the system named is Rattus norvegicus. Description: In vivo neuroprotective activity to block nitrogen (N2) lethality in male Dawley rats by ip administration at a dose of 80 mg/kg. In kind it is functional. The conditions noted are these: route intraperitoneal.
Test [2] concerns the target T1, 5-hydroxytryptamine receptor 1A (Rattus norvegicus, UniProt P19327).
T1 sequence (P19327 whole entry): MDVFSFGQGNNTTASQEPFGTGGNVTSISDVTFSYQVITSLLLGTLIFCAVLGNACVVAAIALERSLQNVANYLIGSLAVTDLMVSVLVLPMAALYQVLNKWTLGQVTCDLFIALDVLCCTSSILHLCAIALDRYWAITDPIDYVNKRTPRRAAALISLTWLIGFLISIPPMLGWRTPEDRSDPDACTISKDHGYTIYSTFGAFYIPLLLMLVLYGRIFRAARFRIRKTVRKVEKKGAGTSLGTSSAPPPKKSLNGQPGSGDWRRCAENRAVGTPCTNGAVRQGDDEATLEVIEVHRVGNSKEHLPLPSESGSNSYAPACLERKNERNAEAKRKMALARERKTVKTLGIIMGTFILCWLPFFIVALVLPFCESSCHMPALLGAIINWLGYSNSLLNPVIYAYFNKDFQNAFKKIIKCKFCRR
Description: In vitro binding affinity towards serotonin 5-HT1A receptor by the displacement of [3H]8-OH-DPAT from rat hippocampus. Type of test: tissue-based. On the technique in general: Displacement assays read how much labelled ligand stays bound in the presence of the test substance.

Test [3] concerns the target 5-hydroxytryptamine receptor 2A (Rattus norvegicus, UniProt P14842). Put plainly: In vitro binding affinity towards serotonin 5-HT2A receptor by the displacement of [3H]spiperone from rat cortical membranes. In kind it is cell membranes, Membrane.
The test system of test [4] is Rattus norvegicus. Description: In vivo neuroprotective activity to block nitrogen (N2) lethality in male Dawley rats by ip administration at a dose of 20 mg/kg. In kind it is functional. Conditions: route intraperitoneal.
In test [5] the test system is Rattus norvegicus. Description: In vivo neuroprotective activity to block nitrogen (N2) lethality in male Dawley rats by ip administration at a dose of 40 mg/kg. In kind it is functional. The conditions noted are these: route intraperitoneal.
Test [6] relates to Rattus norvegicus. Description: In vivo neuroprotective activity to block nitrogen (N2) lethality in male Dawley rats by ip administration at a dose of 100 mg/kg. In kind it is functional. Conditions: route intraperitoneal.
The subject of test [7] is Rattus norvegicus. Description: In vivo neuroprotective activity to block nitrogen (N2) lethality in male Dawley rats by ip administration at a dose of 50/100 mg/kg. In kind it is functional.

5-hydroxytryptamine receptor 2A, sequence (P14842 whole entry): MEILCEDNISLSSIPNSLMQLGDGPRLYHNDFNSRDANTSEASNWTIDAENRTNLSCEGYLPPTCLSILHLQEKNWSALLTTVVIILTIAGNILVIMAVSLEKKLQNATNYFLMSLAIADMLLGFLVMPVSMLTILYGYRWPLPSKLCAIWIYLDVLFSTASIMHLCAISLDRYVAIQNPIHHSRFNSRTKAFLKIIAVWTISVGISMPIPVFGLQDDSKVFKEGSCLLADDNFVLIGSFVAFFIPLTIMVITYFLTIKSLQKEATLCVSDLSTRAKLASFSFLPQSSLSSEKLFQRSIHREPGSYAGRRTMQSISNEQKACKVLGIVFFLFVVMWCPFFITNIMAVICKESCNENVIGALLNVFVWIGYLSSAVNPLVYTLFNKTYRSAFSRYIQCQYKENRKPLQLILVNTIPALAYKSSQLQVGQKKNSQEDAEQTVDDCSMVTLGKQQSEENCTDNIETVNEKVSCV

`Fc1cnc(N2CCN(CCCCC3CCCCC3)CC2)nc1`: the Protection with Rattus norvegicus [1] worked out at 75%. In test [2], the IC50 (commonly the concentration that gives 50% inhibition) was 315 nM.
In the test on Rattus norvegicus [1], `CC(=O)OC(CCCN1CCN(c2ncc(F)cn2)CC1)c1ccc(F)cc1` (configuration not stated) displayed a Protection of 100%. Besides, the IC50 in test [2] is 46 nM; in test [3], 504 nM.
In the test on Rattus norvegicus [4], `NC(CCCN1CCN(c2ncc(F)cn2)CC1)C1CCCCC1` (configuration not stated) had a Protection of 50%. In test [2], this compound had an IC50 of 257 nM.
On to `OC(CCCN1CCN(c2ncc(F)cn2)CC1)C1CCCCC1` (configuration not stated), for which, in the test on Rattus norvegicus [5], the Protection is on record as 100%. The compound also gave an IC50 in test [2] of 30 nM.
Turning to `O=C(NC(CCCN1CCN(c2ncc(F)cn2)CC1)C1CCCCC1)c1ccc(F)cc1` (configuration not stated), the Protection in the test on Rattus norvegicus [4] was 50%. The compound also showed an IC50 in test [3] of 760 nM.
As to `O=C(OC(CCCN1CCN(c2ncc(F)cn2)CC1)c1ccc(F)cc1)c1ccccc1` (configuration not stated), in the test with Rattus norvegicus [1], the Protection is recorded as 63%. Further, the half-inhibitory concentration (IC50) in test [2] was determined as 581 nM.
In the test on Rattus norvegicus [5], `O=S(=O)(CCCN1CCN(c2ncc(F)cn2)CC1)c1ccc(F)cc1` gave a Protection of 25%. This compound gave an IC50 in test [2] of 461 nM.
For `O=C(NC(CCCN1CCN(c2ncc(F)cn2)CC1)c1ccc(F)cc1)c1ccc(F)cc1` (configuration not stated), the Protection with Rattus norvegicus [5] amounted to 88%. Besides, the IC50 in test [2] stood at 106 nM; in test [3], 468 nM.
Turning to `NC(CCCN1CCN(c2ncc(F)cn2)CC1)c1ccc(F)c2ccccc12` (configuration not stated), the Protection in the test on Rattus norvegicus [5] was 38%. The 50% inhibitory concentration (IC50) in test [2] was found to be 345 nM.
In the same order, the values of `CC(=O)NC(CCCN1CCN(c2ncc(F)cn2)CC1)c1ccc(F)cc1` (configuration not stated) are 13% and 289 nM.
As to `O=S(=O)(NC(CCCN1CCN(c2ncc(F)cn2)CC1)C1CCCCC1)c1ccc(F)cc1` (configuration not stated), in the test with Rattus norvegicus [4], the Protection is 50%. In test [3], this compound gave an IC50 of 760 nM.
Take `O=S(=O)(NC(CCCN1CCN(c2ncc(F)cn2)CC1)c1ccc(F)c2ccccc12)c1ccc(F)cc1` (configuration not stated): the Protection in the test on Rattus norvegicus [5] is recorded as 38%.
With `OC(CCCN1CCN(c2ncc(F)cn2)CC1)c1ccc(F)c2ccccc12` (configuration not stated), in the test on Rattus norvegicus [6], the Protection is recorded as 100%. Further, the values for the IC50 in test [2] and in test [3] were 562 nM and 1010 nM, respectively.
Consider `Fc1ccc(CCCCN2CCN(c3ncc(F)cn3)CC2)cc1`, for which the Protection in the test on Rattus norvegicus [5] came out at 75%. For the same compound, the half-inhibitory concentration (IC50) in test [2] turned out to be 71 nM; in test [3], 212 nM.
Compound `Fc1ccc(OCCCN2CCN(c3ncc(F)cn3)CC2)cc1` registered a Protection with Rattus norvegicus [5] of 25%. The results for the half-inhibitory concentration (IC50) in test [2] and in test [3] were 145 nM and 141 nM, respectively.
In the same order, the values of `OC(CCCN1CCN(c2ncc(F)cn2)CC1)(c1ccc(F)cc1)C1CCCCC1` (configuration not stated) are 75%, 50 nM and 336 nM.
`Fc1ccc(SCCCN2CCN(c3ncc(F)cn3)CC2)cc1` gave a Protection with Rattus norvegicus [5] of 13%. In addition, the IC50 in test [2] was determined as 129 nM.
Regarding `OC(CCCN1CCN(c2ncc(F)cn2)CC1)c1ccc(F)cc1` (configuration not stated) [BMY-14802], the Protection in the test on Rattus norvegicus [7] is 63%. The same compound yielded an IC50 in test [3] of 1700 nM.
With `O=S(=O)(NC(CCCN1CCN(c2ncc(F)cn2)CC1)c1ccc(F)cc1)c1ccc(F)cc1` (configuration not stated), the Protection in the test with Rattus norvegicus [1] was determined as 100%. Also, the half-inhibitory concentration (IC50) in test [2] was found to be 1810 nM; in test [3], 3400 nM.
As to `Fc1cnc(N2CCN(CCCCc3ccc(F)c4ccccc34)CC2)nc1`, the Protection in the test with Rattus norvegicus [4] turned out to be 100%. In addition, the values for the IC50 in test [2] and in test [3] were 414 nM and 590 nM, respectively.

For the origin of these results see ChEMBL document CHEMBL1127947, “Synthesis and evaluation of n-substituted 1-(5-fluoro-2-pyrimidinyl)piperazine derivatives as potential anti-ischemic agents” (Bioorg Med Chem Lett, 1994).
